Assay results reported in a melting point compilation (Tetko et al.; mined from patent text by program, amines drawn as free bases though some values may be those of a salt).

Row | SMILES | melting point
1 | CN1C(=O)C(C)(C)N=C(c2ccccc2F)c2c(Cl)c(N)c(Cl)c(Cl)c21 | 165 to 166 °C
2 | CC(C)(C)OC(=O)N1CCN(CCSc2nc3cc(F)c(F)cc3[nH]2)CC1 | 192 to 193 °C
3 | O=[N+]([O-])c1ccccc1S | 40 to 42 °C
4 | CCc1nc2c(cnn2CC)c(NC2CCOCC2)c1CNC(=O)c1cc(C)cc(C(=O)NCc2ccc(C)c(-c3cccc(C=O)c3)c2)c1 | 117 to 120 °C
5 | Cc1n[nH]c(-c2ccc(F)cc2)c1-c1ccc2c(c1)NC(=O)CO2 | 295 to 298 °C
6 | O=C(O)c1cc(C(c2cc(F)ccc2F)S(=O)(=O)c2ccc(Cl)cc2)c(F)cn1 (stereo not given) | 208 to 209 °C
7 | COc1cc(OC)nc(NC(=O)NS(=O)(=O)c2ccccc2CCBr)n1 | 163 to 166 °C
8 | C=CCN(CC=C)c1nc(NC(=O)c2ccc(Cl)cc2Cl)n2oc(=O)nc2n1 | 163 to 164 °C
9 | CCNC(=O)N1CCc2cc(S(=O)(=O)n3cc(-c4ccccc4)[nH]c3=O)ccc21 | 234 to 235 °C
10 | CCN(CC)C(=O)N[C@H]1CC[C@H](NC(=O)N(CC)CC)CC1 | 225 to 228 °C
11 | CCNC(=O)c1ccc(F)c(Cl)c1 | 102 °C
12 | CCN(CC)C(=O)Cc1ccccc1OC | 141 °C
13 | O=C1c2ccc(-n3ncc4ccccc43)cc2CCN1CCN1CCCC1 | 185 to 186 °C
14 | O=C1c2cc(O)ccc2OCN1CCO | 148 to 150 °C
15 | COc1cc(I)c(I)cc1OC | 134 to 136 °C
16 | COc1ccc(-c2cc(-c3ccccc3C(=O)O)no2)cc1 | 182 to 185 °C
17 | CCC(CO)NC(=O)C(C)(C)c1ccc(-c2cccc(COC)c2)cc1 (stereo not given) | 73 to 75 °C
18 | C#CC1(O)C(CO)OC(n2ccc(N)nc2=O)C1O (stereo not given) | 233 to 235 °C
19 | CC(=O)NCCCCCC(=O)NC[C@@H]1CN2C(=O)C[C@H]2O1 (racemic) | 117 to 118 °C
20 | CCCc1nc2c(N)nc3cc(-c4ccccc4C(N)=O)ccc3c2s1 | 274 to 276 °C
21 | C=CCc1cc2c(cc1O)CCC(=O)N2CC=C(C)C | 148 to 150 °C
22 | Cc1ccc(C(=S)c2ccccc2C(=O)O)cc1 | 151 to 155 °C
23 | COC(=O)CCc1ccc(NC(=O)C(Cn2ccnc2)NS(=O)(=O)c2ccc(Cl)cc2)cc1 (racemic) | 79 to 82 °C
24 | Cn1cc(S(C)=O)c(=O)c2ccc(Br)cc21 (stereo not given) | 248 to 249 °C

Row | SMILES | melting point
25 | O=C(NCc1ccc(Cl)cc1)c1cnc2c(F)cc(O)cc2c1O | 310 to 313 °C
26 | Cc1nnc2n1-c1sc(C#CCCN3C(=O)c4cccc5cccc(c45)C3=O)cc1C(c1ccccc1Cl)=NC2 | 175 to 179 °C
27 | Clc1ccccc1-n1nnnc1Cl | 101 to 103 °C
28 | Nc1cc(-n2nc3ccc(Cl)cn3c2=O)c(F)cc1Cl | 247 to 250 °C
29 | CC(C)(C)C(=O)c1c[nH]c2ncc(-n3ccc4ccccc43)nc12 | 205 to 207 °C
30 | CCCCCCCCCCCCCCCCCCNC(=O)Nc1cccc([N+](=O)[O-])c1 | 102 to 104 °C
31 | COC(=O)CCC(=O)Nc1ccc(C(=O)NNC(=O)OC(C)(C)C)cc1 | 111 to 113 °C
32 | CC(C)(C)c1cc(C(=O)Oc2ccc(C(=O)O)cc2)cc(C(C)(C)C)c1O | 223 to 224 °C
33 | CC(C)CCCC(C)C1CCC2C3CCC4CC(OC(=O)c5ccccc5)CCC4(C)C3CCC12C (stereo not given) | 215 to 216 °C
34 | Cc1cc(Nc2cc(F)c(F)cc2C(=O)O)n(-c2ccccn2)n1 | 247 to 248 °C
35 | O=C1c2ccccc2C(=O)N1CC(=CF)CBr | 86 to 87 °C
36 | O=[N+]([O-])c1cc(C(F)(F)F)ccc1NC1CCCCC1 | 80.1 °C
37 | COc1cc2c(c(Br)c1OC(C)=O)Sc1cc(C)ccc1N2 | 193 to 194 °C
38 | Cc1c(C(C)CC(=O)O)n(Cc2ccc(Cl)cc2)c2ccc(F)cc12 (stereo not given) | 143 °C
39 | Clc1ccc(C(c2ccc(Cl)cc2)(c2nc[nH]n2)n2ccnc2)cc1 | 188 to 191 °C
40 | c1ccc(CSc2cc(SCc3ccccc3)c3ccc4c(SCc5ccccc5)cc(SCc5ccccc5)c5ccc2c3c54)cc1 | 178 to 180 °C
41 | c1ccc(Oc2ccc3nnn(Cc4ccc5ncccc5c4)c3n2)cc1 | 225 to 227 °C
42 | CCOC(=O)C1=C(N2CCCC2)N=C(C)C(C(=O)OCC)C1c1ccccc1C#N (stereo not given) | 115 °C
43 | CC(C)(C)c1cc(C(=O)Nc2ccc(CC(=O)O)cc2)cc(C(C)(C)C)c1O | 253 to 254 °C
44 | CNC(=O)Cc1c(-c2cc(C)sc2C)nc2sc3ccccc3n12 | 238 to 239 °C
45 | COc1cc(C(C)C)ccc1C1(NC(N)=O)C(=O)c2ccccc2C1=O | 272 to 274 °C
46 | COC(=O)c1ccc(-c2coc(-c3ccc4c(c3)C(C)(C)CCC4(C)C)c2)cc1 | 109 to 111 °C
47 | Cc1ccc(-c2c(NS(=O)(=O)c3ccc(C(C)(C)C)cc3)ncnc2OCCOc2ncc(C#CC(C)(C)O)cn2)cc1 | 172 to 174 °C
48 | Nc1nc2cc(OCc3ccccc3)ccc2c2c1ncn2CCOc1ccccc1 | 200 to 201 °C

Row | SMILES | melting point
49 | CC(=O)Nc1ccc(C#Cc2c(F)c(F)nc(F)c2F)cc1 | 189 to 190 °C
50 | CN1CC(CCCl)Oc2cc(Cl)ccc2C1=O (stereo not given) | 85 to 87 °C
51 | CCCCCC(CCC(=O)c1ccc(OCC)cc1)C(=O)O (stereo not given) | 61 °C
52 | Fc1ccc(-c2nc(CCCSc3ccccc3)[nH]c2-c2ccncc2)cc1 | 98 to 99 °C
53 | CCOC(=O)c1ccccc1SN(C(=O)NC(=O)c1ccccc1Cl)c1ccc(Oc2ccc(C(F)(F)F)cc2Cl)cc1 | 98 to 100 °C
54 | CCN(c1cccc(-c2ccnc3c([N+](=O)[O-])cnn23)c1)S(=O)(=O)c1ccc(OC)cc1 | 209 to 211 °C
55 | NC1CCN(c2nc3c(cc2F)c(=O)c(C(=O)O)cn3CCF)C1 (stereo not given) | 251 to 255 °C
56 | CCCCCCC(=O)c1ccc(O)c(Cl)c1Cl | 82 to 84 °C
57 | C=CCc1c(O)ccc2c1ccc(=O)n2CC=C(C)C | 224 to 228 °C
58 | NCCC(=O)Nc1ccc(Nc2ccccc2)cc1 | 108 to 110 °C
59 | O=C(O)CCSc1ccccc1CNC(=O)C1Cc2ccccc2N1S(=O)(=O)c1ccc(-c2cccc(C(F)(F)F)c2)cc1 (stereo not given) | 85 to 89 °C
60 | COc1cc(CC#N)c(CCN)cc1OC | 78 °C
61 | Clc1ccc(-c2oncc2-c2ccncc2)cc1 | 121 °C
62 | COc1c(N2CCNCC2)c(F)cc2c(=O)c(C(=O)O)c3n(c12)C(C)S3 (stereo not given) | 278 to 280 °C
63 | CCOC(=O)COc1cc(OCC=C(C)C)ccc1C(=O)C=Cc1ccc(C(C)(C)C)cc1 | 78 to 79 °C
64 | Cc1c(NC(=O)c2ccc(-c3ccc4c(c3)CCO4)cc2F)ccc2cc(CN3CCCC3)cnc12 | 181 to 182 °C
65 | C=CCNC(=O)CC(=O)C=Cc1ccccc1[N+](=O)[O-] | 128 to 129 °C
66 | CCOC(=O)COc1ccc(Cn2c(-c3ccc(Cl)cc3)c(C)c3cc(OCc4ccccc4)ccc32)cc1 | 99 to 101 °C
67 | COc1cc(OCCN2CCc3ccccc3C2)ccc1C=NNC(=O)c1ccc(O)c(N)c1 | 162 to 164 °C
68 | CCOC(=O)C(=O)Nc1coc2ccccc2c1=O | 146 to 148 °C
69 | CC1(C)NC(=O)CSC1=NO | 234 to 236 °C
70 | CCOC(=O)CCc1cc(OCOC)nn1Cc1ccc(Cl)cc1Cl | 47 to 49 °C
